# Results from ChEMBL document CHEMBL4130620, “Disconnecting the Estrogen Receptor Binding Properties and Antimicrobial Properties of Parabens through 3,5-Substitution” (ACS Med Chem Lett, 2018).
# Legend:
# [1] = target: T1, Estrogen receptor alpha (ERalpha) (Homo sapiens, UniProt P03372); assay: Safety index, ratio of IC50 for test compound to IC50 for paraben for displacement of Fluor.ES2 Green from human ERalpha by TR-FRET competitive binding assay; conditions: probe Fluor.ES2 Green, read-out: Ratio IC50
# T1 sequence (P03372 whole entry): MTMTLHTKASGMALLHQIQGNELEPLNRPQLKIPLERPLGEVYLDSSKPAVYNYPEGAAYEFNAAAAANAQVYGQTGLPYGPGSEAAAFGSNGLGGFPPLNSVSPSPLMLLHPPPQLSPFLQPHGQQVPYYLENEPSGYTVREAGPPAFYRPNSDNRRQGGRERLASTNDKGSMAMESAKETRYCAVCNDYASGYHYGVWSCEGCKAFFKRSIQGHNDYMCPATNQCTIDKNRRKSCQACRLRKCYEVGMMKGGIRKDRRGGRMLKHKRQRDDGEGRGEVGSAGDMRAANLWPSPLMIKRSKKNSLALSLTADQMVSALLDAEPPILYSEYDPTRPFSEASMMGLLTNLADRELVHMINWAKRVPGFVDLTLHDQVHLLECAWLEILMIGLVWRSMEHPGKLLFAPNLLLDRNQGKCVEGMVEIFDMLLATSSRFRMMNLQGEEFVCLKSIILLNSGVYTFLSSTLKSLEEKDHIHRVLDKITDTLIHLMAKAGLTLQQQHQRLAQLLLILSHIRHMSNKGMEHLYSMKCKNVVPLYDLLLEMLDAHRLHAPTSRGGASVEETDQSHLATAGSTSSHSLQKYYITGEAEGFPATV
# Estrogen receptor = target: T2, Estrogen receptor (Homo sapiens, UniProt P03372)
# T2 sequence (P03372 whole entry): T1 sequence (P03372 whole entry)
# Description: Displacement of Fluor.ES2 Green from human ERalpha by TR-FRET competitive binding assay
# MCF7 [2] = type: toxicity, cell-based; conditions: human
# MCF7 [3] = type: ADME, cell-based; conditions: human, mcf7, 24 h
# MCF7 [4] = type: toxicity, cell-based; conditions: human; remark: listed apart in the source
# Staphylococcus aureus = assay: microbe, parasite or virus in culture; conditions: 155554A, 16 h
# Description: Antibacterial activity against Staphylococcus aureus 155554A incubated for 16 hrs by microdilution assay
# [5] = target: T1, Estrogen receptor alpha (ERalpha); assay: Displacement of Fluor.ES2 Green from human ERalpha at 100000 nM by TR-FRET competitive binding assay; conditions: probe Fluor.ES2 Green
# [6] = Solubility of the compound at >512 ug/ml; type: physicochemical
SMILES,selectivity ratio [1],IC50 (Estrogen receptor) [µM],Activity (MCF7 [2]),Activity (MCF7 [3]),Activity (MCF7 [4]),MIC (Staphylococcus aureus) [µM],inhibition at 100 µM [5] [%],solubility [6]
CCCCOC(=O)c1cc(Br)c(O)c(Br)c1,20 to 40,39.4,Non-Toxic,Non-Toxic,Non-Toxic,91,–,–
CCCCOC(=O)c1cc(OC)c(O)c(OC)c1,20 to 40,> 200,–,Non-Toxic,–,924,20,Insoluble
CCCCOC(=O)c1cc([N+](=O)[O-])c(O)c([N+](=O)[O-])c1,20 to 40,> 200,–,Non-Toxic,–,1810,20,–
CCCCOC(=O)c1c(F)c(F)c(O)c(F)c1F,20 to 40,29.4,–,Non-Toxic,–,483,–,–
CCCCOC(=O)c1cc(C(C)(C)C)c(O)c(C(C)(C)C)c1,20 to 40,> 200,–,Non-Toxic,–,834,20,Insoluble
CCCCCCCCOC(=O)c1cc(C)c(O)c(C)c1,20 to 40,16.2,–,Non-Toxic,–,213,–,–
CCCCOC(=O)c1ccc(O)c(I)c1,–,7.98,–,Non-Toxic,–,199,–,–
CCCCCCCCOC(=O)c1cc([N+](=O)[O-])c(O)c([N+](=O)[O-])c1,20 to 40,60.4,Non-Toxic,Non-Toxic,Non-Toxic,47,–,–
CCCCCCCCOC(=O)c1cc(I)c(O)c(I)c1,20 to 40,13.2,Non-Toxic,Non-Toxic,Non-Toxic,31.8,–,–
CCCCOC(=O)c1ccc(O)c(Br)c1,–,8.21,–,Non-Toxic,–,236,–,–
CCCCOC(=O)c1cc(C)c(O)c(C)c1,20 to 40,32.5,–,Non-Toxic,–,> 1040,–,Insoluble
CCCCOC(=O)c1cc(Cl)c(O)c(Cl)c1,20 to 40,55.3,–,Non-Toxic,–,245,–,–
CCCCOC(=O)c1cc(I)c(O)c(I)c1,20 to 40,34.6,Non-Toxic,Non-Toxic,Non-Toxic,36,–,–
CCCCOC(=O)c1cc(O)c(O)c(O)c1 [BUTYL GALLATE],–,8.97,–,Non-Toxic,–,2060,–,–
CCCCOC(=O)c1ccc(O)cc1 [BUTYLPARABEN],–,–,–,Toxic,–,1320,–,–
CCOC(=O)c1ccc(O)cc1 [ETHYLPARABEN],–,–,–,Toxic,–,–,–,–
CCCCCCCCOC(=O)c1cc(O)c(O)c(O)c1 [OCTYL_GALLATE],20 to 40,8.74,–,Non-Toxic,–,210,–,–
CC1(C)S[C@@H]2[C@H](NC(=O)Cc3ccccc3)C(=O)N2[C@H]1C(=O)O [PENICILLIN G],–,–,–,–,–,0.749,–,–
